From patent US4996217A, “Pyridyl-substituted imidazoles, compositions containing same and methods of use thereof” (Tanabe Seiyaku Company, Ltd., priority 1986, dated 1991) come the findings set out here.

The first experiment deals with T1, H+/K+ ATPase (Sus scrofa, UniProt P19156).
T1 construct: prepared from the porcine gastric mucosa; from tissue; host or cells: porcine gastric mucosa
T1 sequence (P19156 2-1034 limits assumed): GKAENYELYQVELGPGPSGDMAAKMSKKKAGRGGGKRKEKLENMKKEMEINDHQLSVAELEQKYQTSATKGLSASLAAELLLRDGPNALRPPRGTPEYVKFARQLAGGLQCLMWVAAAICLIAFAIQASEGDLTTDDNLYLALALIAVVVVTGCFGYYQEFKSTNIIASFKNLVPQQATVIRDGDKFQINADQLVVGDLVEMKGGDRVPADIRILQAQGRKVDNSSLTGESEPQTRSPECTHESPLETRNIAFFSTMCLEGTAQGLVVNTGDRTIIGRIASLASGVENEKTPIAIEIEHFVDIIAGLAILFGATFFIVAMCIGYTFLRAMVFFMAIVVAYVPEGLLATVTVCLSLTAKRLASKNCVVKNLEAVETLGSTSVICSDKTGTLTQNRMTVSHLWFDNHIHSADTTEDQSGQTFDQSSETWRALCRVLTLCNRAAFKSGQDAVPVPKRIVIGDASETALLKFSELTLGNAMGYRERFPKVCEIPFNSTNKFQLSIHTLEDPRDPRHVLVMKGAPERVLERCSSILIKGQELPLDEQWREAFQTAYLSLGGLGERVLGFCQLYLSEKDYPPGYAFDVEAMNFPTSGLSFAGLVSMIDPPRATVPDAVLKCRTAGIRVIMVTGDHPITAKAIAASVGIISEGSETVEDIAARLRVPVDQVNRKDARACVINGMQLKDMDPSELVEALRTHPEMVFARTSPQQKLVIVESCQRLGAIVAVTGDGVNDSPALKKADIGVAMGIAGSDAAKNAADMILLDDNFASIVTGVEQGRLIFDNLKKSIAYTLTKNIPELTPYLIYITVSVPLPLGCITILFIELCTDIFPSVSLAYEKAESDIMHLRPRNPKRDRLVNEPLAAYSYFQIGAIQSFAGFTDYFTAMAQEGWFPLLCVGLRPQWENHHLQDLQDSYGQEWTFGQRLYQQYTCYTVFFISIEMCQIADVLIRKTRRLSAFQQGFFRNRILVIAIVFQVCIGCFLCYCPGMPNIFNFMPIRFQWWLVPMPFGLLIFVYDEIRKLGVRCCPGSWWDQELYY
T1 sequence (P18434 whole entry partner): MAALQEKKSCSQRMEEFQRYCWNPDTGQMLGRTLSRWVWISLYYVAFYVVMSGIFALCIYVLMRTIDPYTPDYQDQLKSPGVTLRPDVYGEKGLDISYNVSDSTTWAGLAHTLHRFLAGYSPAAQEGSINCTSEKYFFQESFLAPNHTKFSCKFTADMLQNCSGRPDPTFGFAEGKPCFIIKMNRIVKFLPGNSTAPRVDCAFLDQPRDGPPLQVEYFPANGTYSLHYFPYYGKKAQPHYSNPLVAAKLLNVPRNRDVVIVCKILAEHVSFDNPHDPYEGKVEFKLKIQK
Nature of the experiment: effect on the enzyme activity of H+/K+ ATPase prepared from porcine gastric mucosa. To be noted: read-out: IC50 (concentration required to induce 50% inhibition of H+/K+ ATPase enzymatic activity). Format: biochemical.
On to `CCN(CC)c1ccccc1C[S+]([O-])c1nc2c(n1-c1ccccn1)CCC2` (stereo not drawn) [1,4,5,6-tetrahydro-1-(2-pyridyl)-2-(2-(diethylamino)benzylsulfinyl)cyclopenta(d)imidazole], for which the IC50 is ~10 µM.
Same read-out and setting: for `CCN(CC)c1ccccc1C[S+]([O-])c1nccn1-c1cc(OC)cc(C)n1` (stereo not drawn) [1-(4-methoxy-6-methyl-2-pyridyl)-2-(2-(diethylamino)benzylsulfinyl)imidazole] the value was < 10 µM.
Consider `[O-][S+](Cc1ccccc1NC1CCCCC1)c1nccn1-c1ccccn1` (stereo not drawn) [1-(2-pyridyl)-2-(2-(cyclohexylamino)benzylsulfinyl)imidazole], for which the IC50 was < 10 µM.

A further experiment relates to gastrin-induced gastric acid secretion. Nature of the experiment: effect on gastrin-induced gastric acid secretion, oral administration to rats. Format: in vivo. To be noted: dose of 30 mg/kg.
Consider `CCN(CC)c1ccccc1C[S+]([O-])c1nc2c(n1-c1ccccn1)CCC2` (stereo not drawn) [1,4,5,6-tetrahydro-1-(2-pyridyl)-2-(2-(diethylamino)benzylsulfinyl)cyclopenta(d)imidazole], for which the “decrease in gastric acid secretion as compared with non-administered group of rats” value is reported as “more than 70%”.
Still for that read-out and setting: for `Cc1cccnc1-n1ccnc1[S+]([O-])Cc1ccccc1N(C)C` (stereo not drawn) [1-(3-methyl-2-pyridyl)-2-(2-(dimethylamino)benzylsulfinyl)imidazole] the value was “more than 70%”.
Still for that read-out and setting: next, `[O-][S+](Cc1ccccc1-n1cccc1)c1nccn1-c1ccccn1` (stereo not drawn) [1-(2-pyridyl)-2-(2-(1-pyrrolyl)-benzylsulfinyl)imidazole]: “more than 70%”.
